We go through 24 molecules from ChEMBL document CHEMBL1157129, “Synthesis and antiprotozoal activity of 2,5-bis[amidinoaryl]thiazoles” (Bioorg Med Chem, 2010).

SMILES strings stand for the structures. Calls of active or inactive are those of the source. The calls are words filed in the database; no cut-off is given here.

For experiment [1], the system named is Trypanosoma brucei rhodesiense. In words: Antitrypanosomal activity against Trypanosoma brucei rhodesiense STIB900 in infected mouse model assessed as parasitemia cure in host at 5 mg/kg, ip for 4 days. The arrangement: dose 5 mg/kg. Format: functional, organism-based.
Experiment [2] has as its system Trypanosoma brucei rhodesiense. In words: Antitrypanosomal activity against Trypanosoma brucei rhodesiense STIB900 in infected mouse model assessed as host survival time at 5 mg/kg, ip for 4 days. As to conditions: route intraperitoneal. Format: functional.
In experiment [3] the test system is L6. Put plainly: Cytotoxicity against rat L6 cells. Format: cell-based.
In experiment [4] the test system is Plasmodium falciparum. In words: Antiplasmodial activity against Plasmodium falciparum K1. Type of experiment: functional, organism-based.
Experiment [5] relates to Trypanosoma brucei rhodesiense. Put plainly: Antitrypanosomal activity against Trypanosoma brucei rhodesiense STIB900. Type of experiment: functional, organism-based.
Experiment [6] concerns Trypanosoma brucei rhodesiense. Put plainly: Antitrypanosomal activity against Trypanosoma brucei rhodesiense STIB900 in infected mouse model assessed as parasitemia cure in host at 25 mg/kg, po for 4 days. Type of experiment: functional, organism-based. Also on record: dose 25 mg/kg.
For experiment [7], the system named is Trypanosoma brucei rhodesiense. In words: Antitrypanosomal activity against Trypanosoma brucei rhodesiense STIB900 in infected mouse model assessed as host survival time at 25 mg/kg, po for 4 days. Type of experiment: functional.

Consider `Cl.Cl.N=C(N)c1ccc(-c2ncc(-c3ccc(C(=N)N)nc3)s2)cc1`, for which the outcome in experiment [1] was inactive. Besides, in experiment [2], the Survival is above 36 days. The figures for the concentration for half-maximal inhibition (IC50) in experiment [3], in experiment [4] and in experiment [5] were 40.2 µM, 0.0024 µM and 0.006 µM, respectively.

With `Cl.Cl.N/C(=N\O)c1ccc(-c2cnc(-c3ccc(/C(N)=N\O)cn3)s2)nc1`, the outcome in experiment [6] was inactive. Besides, the Survival in experiment [7] was found to be 9 days.

Take `Cl.Cl.N/C(=N\O)c1ccc(-c2cnc(-c3ccc(/C(N)=N\O)cn3)s2)cc1`: in experiment [6], the result was inactive. Further, the Survival in experiment [7] was found to be 24 days.

For the molecule `Cl.Cl.N/C(=N/O)c1ccc(-c2cnc(-c3ccc(/C(N)=N\O)cc3)s2)cc1`, the result in experiment [6] was inactive. The Survival in experiment [7] was 35 days.

With `CO/N=C(\N)c1ccc(-c2cnc(-c3ccc(/C(N)=N\OC)cn3)s2)nc1.Cl.Cl`, in experiment [6], the result was inactive. Besides, the Survival in experiment [7] is 9 days.

For the molecule `CO/N=C(\N)c1ccc(-c2cnc(-c3ccc(/C(N)=N\OC)cn3)s2)cc1.Cl.Cl`, in experiment [6], the outcome was inactive. Besides, in experiment [7], the Survival was found to be 35 days.

For the molecule `N=C(N)c1ccc(OCCCCCOc2ccc(C(=N)N)cc2)cc1` [PENTAMIDINE], the Survival in experiment [2] was determined as 45 days.

Regarding `CO/N=C(\N)c1ccc(-c2cnc(-c3ccc(/C(N)=N/OC)nc3)s2)cc1.Cl`, the result in experiment [6] was inactive. In experiment [7], the Survival turned out to be 42.8 days.

In the case of `Cl.Cl.N/C(=N\O)c1ccc(-c2ncc(-c3ccc(/C(N)=N\O)nc3)s2)cc1`, in experiment [6], the outcome was inactive. The Survival in experiment [7] was determined as 36.8 days.

Consider `Cl.Cl.N/C(=N\O)c1ccc(-c2cnc(-c3ccc(/C(N)=N/O)nc3)s2)cc1`, for which the result in experiment [6] was inactive. Further, in experiment [7], the Survival stood at 37.5 days.

Turning to `CO/N=C(\N)c1ccc(-c2cnc(-c3ccc(/C(N)=N\OC)nc3)s2)cn1.Cl.Cl`, in experiment [7], the Survival is 9 days.

As for `Cl.Cl.N=C(N)c1ccc(-c2cnc(-c3ccc(C(=N)N)cc3)s2)cc1`, in experiment [2], the Survival was above 44.5 days. The half-inhibitory concentration (IC50) (usually the concentration needed to halve the response being measured) amounted to 0.002 µM in experiment [4] and 0.004 µM in experiment [5].

Take `Cl.Cl.N=C(N)c1ccc(-c2ncc(-c3ccc(C(=N)N)nc3)s2)nc1`: the outcome in experiment [1] was inactive. For the same molecule, the Survival in experiment [2] is 29.25 days. The IC50 turned out to be 37.4 µM in experiment [3], 0.013 µM in experiment [4] and 0.038 µM in experiment [5].

For `Cl.Cl.N=C(N)c1ccc(-c2cnc(-c3ccc(C(=N)N)cn3)s2)cc1`, the outcome in experiment [1] was inactive. The Survival in experiment [2] was 30.25 days. Further, the IC50 in experiment [3] came to 102 µM; in experiment [4] it was 0.0125 µM; in experiment [5], 0.016 µM.

In the case of `Cl.Cl.N=C(N)c1ccc(-c2cnc(-c3ccc(C(=N)N)nc3)s2)cc1`, in experiment [1], the outcome was inactive. In experiment [2], the Survival amounted to 44.5 days. For the same molecule, the IC50 in experiment [3] amounted to 1.8 µM; in experiment [4], 0.0025 µM; in experiment [5], 0.004 µM.

As for `CO/N=C(/N)c1ccc(-c2cnc(-c3ccc(/C(N)=N\OC)cc3)s2)cc1.Cl.Cl`, the result in experiment [6] was inactive. Moreover, the Survival in experiment [7] was 41 days.

On to `N=C(N)c1ccc(-c2ccc(-c3ccc(C(=N)N)cc3)s2)cc1`, for which the Survival in experiment [2] was above 48.75 days. The 50% inhibitory concentration (IC50) worked out at 0.0138 µM in experiment [4] and 0.003 µM in experiment [5].

Turning to `CONC(=N)c1ccc(-c2ccc(-c3ccc(C(=N)NOC)cc3)o2)cc1` [PAFURAMIDINE], the result in experiment [1] was inactive. Moreover, the results for the Survival in experiment [2] and in experiment [7] were 30 days and above 60 days, respectively. Moreover, the outcome in experiment [6] was Active.

Take `N=C(N)c1ccc(-c2ccc(-c3ccc(C(=N)N)cc3)o2)cc1` [FURAMIDINE]: the Survival in experiment [2] was above 46 days. Besides, the midpoint of inhibition in experiment [3], the IC50, lay at 6.5 µM.

`CO/N=C(\N)c1ccc(-c2ccc(-c3ccc(/C(N)=N/OC)cn3)o2)cc1`: the result in experiment [1] was Active. The Survival in experiment [2] and in experiment [7] was above 60 days throughout.

Turning to `N=C(N)c1ccc(-c2ccc(-c3ccc(C(=N)N)cn3)o2)cc1`, the Survival in experiment [2] is above 54.5 days.

Consider `Cl.Cl.N/C(=N\O)c1ccc(-c2cnc(-c3ccc(/C(N)=N\O)nc3)s2)cn1`, for which the Survival in experiment [7] is 24 days.

On to `Cl.Cl.N=C(N)c1ccc(-c2cnc(-c3ccc(C(=N)N)nc3)s2)cn1`, for which the outcome in experiment [1] was inactive. In experiment [2], the Survival was 50.5 days. Further, the 50% inhibitory concentration (IC50) in experiment [3] amounted to 1.4 µM; in experiment [4], 0.0011 µM; in experiment [5] it was 0.006 µM.

For the molecule `Cl.Cl.N=C(N)c1ccc(-c2cnc(-c3ccc(C(=N)N)cn3)s2)nc1`, the outcome in experiment [1] was inactive. Moreover, the Survival in experiment [2] worked out at 21.5 days. Also, the IC50 was above 195 µM in experiment [3], 0.0246 µM in experiment [4] and 0.176 µM in experiment [5].
